Reference: article PMC6934184, “Selective DNA-PKcs inhibition extends the therapeutic index of localized radiotherapy and chemotherapy” (The Journal of Clinical Investigation, 2019)

Molecular target: T1, LYN A (Homo sapiens, UniProt P07948)
T1 construct: purchased Thermo Fisher Scientific (Life Technologies) SelectScreen
Assay: SelectScreen Z'LYTE
Type: biochemical
Procedure, shortened: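 Compound tested in SelectScreen activity assays, Z'LYTE for CSF1R, CDK1/cyclin B and MAP2K6 and Adapta for CAMK1. ATP for CAMK1 was listed as 10, and Km app was used for CSF1R. Results are expressed in percent.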

T1 sequence (P07948 whole entry): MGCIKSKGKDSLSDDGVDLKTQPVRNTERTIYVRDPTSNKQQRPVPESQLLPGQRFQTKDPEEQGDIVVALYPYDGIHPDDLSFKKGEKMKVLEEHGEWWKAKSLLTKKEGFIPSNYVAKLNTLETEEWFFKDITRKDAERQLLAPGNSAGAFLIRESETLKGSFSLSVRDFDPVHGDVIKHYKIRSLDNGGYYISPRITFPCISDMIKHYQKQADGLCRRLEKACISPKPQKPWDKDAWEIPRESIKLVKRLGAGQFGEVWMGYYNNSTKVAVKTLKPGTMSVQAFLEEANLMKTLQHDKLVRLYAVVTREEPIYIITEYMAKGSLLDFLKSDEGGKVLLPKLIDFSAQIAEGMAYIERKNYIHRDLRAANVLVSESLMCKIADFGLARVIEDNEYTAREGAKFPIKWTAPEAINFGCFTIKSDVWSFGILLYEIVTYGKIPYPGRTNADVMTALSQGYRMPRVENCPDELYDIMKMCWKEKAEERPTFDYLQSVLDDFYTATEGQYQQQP

Question: Which inhibition at 1 µM does the source give for `CN(C(=O)CN1CCOCC1)c1ccc2sc3c(-c4cccc5c(=O)cc(N6CC7CCC(C6)O7)oc45)cccc3c2c1` [NU5455] here?
Answer: 15.2%
